Source: patent US20230041563A1, “N-(1,3,4-OXADIAZOL-2-YL)ARYLCARBOXAMIDES OR SALTS THEREOF, PREPARATION METHODS, HERBICIDAL COMPOSITIONS AND USES THEREOF” (priority 2018, published 2023)

How the values were obtained:
[1] = system: Rice; assay: Transplanted rice safety evaluation and weed control effect evaluation in rice field; assay type: in vivo, rice (japonica rice/Indica rice); conditions: Table 7, dose 125 g a.i./ha, 21 days after treatment
How it was run: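 Japonica and Indica rice at 3-leaf stage transplanted into flooded paddy soil (3-4 cm water). Compound applied 5 days after transplanting. Weeds scored visually on 0-5 scale at 14 days; rice injury at 21 days.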

[2] = system: Setaria viridis; assay: Weeding effect in post-emergence stage (greenhouse pot spray); assay type: in vivo; conditions: Table 3, dose 60 g a.i./ha
How it was run: (§1)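 Post-emergence foliar spray on 2-3 leaf greenhouse pot plants at 15 to 500 g a.i./ha with methyl oleate emulsifiable concentrate (1.5 liter/ha) added; growth control by fresh weight after 3 weeks.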

[3] = system: Abutilon theophrasti; assay: as above; assay type: in vivo
How it was run: as §1

[4] = system: Digitaria sanguinalis; assay: as above; assay type: in vivo
How it was run: as §1

[5] = system: Echinochloa crusgalli; assay: as above; assay type: in vivo
How it was run: as §1

[6] = system: Monochoria vaginalis; assay: Transplanted rice safety evaluation and weed control effect evaluation in rice field; assay type: in vivo; conditions: Table 7, dose 125 g a.i./ha, 14 days after treatment
How it was run: (§2)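 Paddy-soil pots, seeds sown and flooded (0.5-1 cm, then 3-4 cm water); Sagittaria grown from tubers. WP or SC dilutions dripped on at 0.5-leaf stage (Sagittaria at primary leaf). Visual 0-5 scoring of weeds at 14 days, rice at 21 days.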

[7] = system: Echinochloa crusgali; assay: as above; assay type: in vivo; conditions: Table 7, dose 125 g a.i./ha, 14 days after treatment
How it was run: as §2

[8] = system: Scirpus juncoides; assay: as above; assay type: in vivo; conditions: Table 7, dose 125 g a.i./ha, 14 days after treatment
How it was run: as §2

[9] = system: Stellaria media; assay: Weeding effect in post-emergence stage (greenhouse pot spray); assay type: in vivo
How it was run: as §1

[10] = system: Amaranthus retroflexus; assay: as above; assay type: in vivo
How it was run: as §1

Structure (SMILES): CCSc1c(C(F)(F)F)ccc(C(=O)Nc2nnc(C)o2)c1F [Compound 1-4]
- Rice (safety level) [1]: 0 (Level 0: growth control rate is less than 5%)
- Setaria viridis (activity level) [2]: 5 (Level 5: growth control rate is above 85%)
- Abutilion theophrasti (activity level) ([3]; Table 2, dose 125 g a.i./ha): 5 (Level 5: growth control rate is above 85%)
- Abutilion theophrasti (activity level) ([3]; Table 2, dose 250 g a.i./ha): 5 (Level 5: growth control rate is above 85%)
- Abutilon theophrasti (activity level) ([3]; Table 3, dose 60 g a.i./ha): 5 (Level 5: growth control rate is above 85%)
- Digitaria sanguinalis (activity level) ([4]; Table 2, dose 125 g a.i./ha): 5 (Level 5: growth control rate is above 85%)
- Digitaria sanguinalis (activity level) ([4]; Table 2, dose 250 g a.i./ha): 5 (Level 5: growth control rate is above 85%)
- Digitaria sanguinahs (activity level) ([4]; Table 3, dose 60 g a.i./ha): 5 (Level 5: growth control rate is above 85%)
- Echinochloa crusgah (activity level) ([5]; Table 2, dose 125 g a.i./ha): 5 (Level 5: growth control rate is above 85%)
- Echinochloa crusgah (activity level) ([5]; Table 2, dose 250 g a.i./ha): 5 (Level 5: growth control rate is above 85%)
- Monochoria vaginalis (activity level) [6]: 5 (Level 5: growth control rate is above 85%)
- Echinochloa crusgali (activity level) [7]: 5 (Level 5: growth control rate is above 85%)
- Scirpus juncoides (activity level) [8]: 5 (Level 5: growth control rate is above 85%)
- Stellaria media (activity level) ([9]; Table 2, dose 125 g a.i./ha): 5 (Level 5: growth control rate is above 85%)
- Stellaria media (activity level) ([9]; Table 2, dose 250 g a.i./ha): 5 (Level 5: growth control rate is above 85%)
- Amaranthus retroflexus (activity level) ([10]; Table 2, dose 125 g a.i./ha): 5 (Level 5: growth control rate is above 85%)
- Amaranthus retroflexus (activity level) ([10]; Table 2, dose 250 g a.i./ha): 5 (Level 5: growth control rate is above 85%)
